Test results as given in patent US20170275275A1, “BENZENESULFONAMIDES USEFUL AS SODIUM CHANNEL INHIBITORS” (PFIZER INC., priority 2014, published 2017).
Where a name gives a salt, the structure may show the parent alone.

Molecular target: T1, Nav1.7 (or SCN9A) channel (Homo sapiens, UniProt Q15858)
T1 construct: expressed in transfected cells
Assay: Nav1.7 (hSCN9A) channel block, PatchXpress (PX) whole-cell electrophysiology in stably transfected HEK cells
Assay type: cell-based
Details: estimated IC50 from single point electrophysiology data; PatchXpress platform; HEK cells expressing hSCN9A; clamped at V1/2 of inactivation; read-out: Nav1.7 EIC50
Experimental: The ability of the compounds of formula (I) to block the Nav1.7 (or SCN9A) channel was measured using the assay described below.
Human Embryonic Kidney (HEK) cells were transfected with an hSCN9A construct using lipofectamine reagent (Invitrogen), using standard techniques. Cells stably expressing the hSCN9A constructs were identified by their resistance to G-418 (400 μg/ml). Clones were screened for expression using the whole-cell voltage-clamp technique.
HEK cells stably transfected with hSCN9A were maintained in DMEM medium supplemented with 10% heat-inactivated fetal bovine serum and 400 μg/ml G-418 in an incubator at 37° C. with a humidified atmosphere of 10% CO2. For HTS, cells were harvested from flasks by trypsinization and replated in an appropriate multi-well plate (typically 96 or 384 wells/plate) such that confluence would be achieved within 24 hours of plating. Cells were typically used for electrophysiological experiments within 24 to 72 hours after plating.
For conventional whole-cell voltage clamp experiments cells were removed from the culture flask by brief trypsinization and re-plated at low density onto glass cover slips. Cover slips containing HEK cells expressing hSCN9A were placed in a bath on the stage of an inverted microscope and perfused (approximately 1 ml/minutes) with extracellular solution of the following composition: 138 mM NaCl, 2 mM CaCl2, 5.4 mM KCl, 1 mM MgCl2, 10 mM glucose, and 10 mM HEPES, pH 7.4, with NaOH. […] The osmolarity of the extracellular and intracellular solutions was 300 mOsm/kg and 295 mOsm/kg, respectively. All recordings were made at room temperature (22-24° C.) using AXOPATCH 200B amplifiers and PCLAMP software (Axon Instruments, Burlingame, Calif.). hSCN9A currents in HEK cells were measured using the whole-cell configuration of the patch-clamp technique (Hamill et al., 1981). Uncompensated series resistance was typically 2 to 5 mega ohms and >85% series resistance compensation was routinely achieved. […] Current records were acquired at 20 to 50 KHz and filtered at 5 to 10 KHz.
HEK cells stably transfected with hSCN9A were viewed under Hoffman contrast optics and placed in front of an array of flow pipes emitting either control or compound-containing extracellular solutions.
The voltage-dependence of inactivation was determined by applying a series of depolarizing prepulses (8 sec long in 10 mV increments) from a negative holding potential. The voltage was then immediately stepped to 0 mV to assess the magnitude of the sodium current. Currents elicited at 0 mV were plotted as a function of prepulse potential to allow estimation of the voltage at which 50% of the channels were inactivated (midpoint of inactivation or V1/2). Compounds were tested for their ability to inhibit hSCN9A sodium channels by activating the channel with a 20 msec voltage step […] to 0 mV following an 8 second conditioning prepulse to the empirically determined V1/2. Compound effect (% inhibition) was determined by difference in current amplitude before and after application of test compounds. For ease of comparison, “estimated IC-50” (EIC50) values were calculated from single point electrophysiology data by the following equation, (tested concentration, nM)×(100-% inhibition/% inhibition). Inhibition values <20% and >80% were excluded from the calculation.
Electrophysiological assays were conducted with PatchXpress 7000 hardware and associated software (Molecular Devices Corp). All assay buffers and solutions were identical to those used in conventional whole-cell voltage clamp experiments described above. hSCN9A cells were grown as above to 50%-80% confluency and harvested by trypsinization. Trypsinized cells were washed and resuspended in extracellular buffer at a concentration of 1×10^6 cells/ml. The onboard liquid handling facility of the PatchXpress was used for dispensing cells and application of test compounds.

T1 sequence (Q15858 whole entry): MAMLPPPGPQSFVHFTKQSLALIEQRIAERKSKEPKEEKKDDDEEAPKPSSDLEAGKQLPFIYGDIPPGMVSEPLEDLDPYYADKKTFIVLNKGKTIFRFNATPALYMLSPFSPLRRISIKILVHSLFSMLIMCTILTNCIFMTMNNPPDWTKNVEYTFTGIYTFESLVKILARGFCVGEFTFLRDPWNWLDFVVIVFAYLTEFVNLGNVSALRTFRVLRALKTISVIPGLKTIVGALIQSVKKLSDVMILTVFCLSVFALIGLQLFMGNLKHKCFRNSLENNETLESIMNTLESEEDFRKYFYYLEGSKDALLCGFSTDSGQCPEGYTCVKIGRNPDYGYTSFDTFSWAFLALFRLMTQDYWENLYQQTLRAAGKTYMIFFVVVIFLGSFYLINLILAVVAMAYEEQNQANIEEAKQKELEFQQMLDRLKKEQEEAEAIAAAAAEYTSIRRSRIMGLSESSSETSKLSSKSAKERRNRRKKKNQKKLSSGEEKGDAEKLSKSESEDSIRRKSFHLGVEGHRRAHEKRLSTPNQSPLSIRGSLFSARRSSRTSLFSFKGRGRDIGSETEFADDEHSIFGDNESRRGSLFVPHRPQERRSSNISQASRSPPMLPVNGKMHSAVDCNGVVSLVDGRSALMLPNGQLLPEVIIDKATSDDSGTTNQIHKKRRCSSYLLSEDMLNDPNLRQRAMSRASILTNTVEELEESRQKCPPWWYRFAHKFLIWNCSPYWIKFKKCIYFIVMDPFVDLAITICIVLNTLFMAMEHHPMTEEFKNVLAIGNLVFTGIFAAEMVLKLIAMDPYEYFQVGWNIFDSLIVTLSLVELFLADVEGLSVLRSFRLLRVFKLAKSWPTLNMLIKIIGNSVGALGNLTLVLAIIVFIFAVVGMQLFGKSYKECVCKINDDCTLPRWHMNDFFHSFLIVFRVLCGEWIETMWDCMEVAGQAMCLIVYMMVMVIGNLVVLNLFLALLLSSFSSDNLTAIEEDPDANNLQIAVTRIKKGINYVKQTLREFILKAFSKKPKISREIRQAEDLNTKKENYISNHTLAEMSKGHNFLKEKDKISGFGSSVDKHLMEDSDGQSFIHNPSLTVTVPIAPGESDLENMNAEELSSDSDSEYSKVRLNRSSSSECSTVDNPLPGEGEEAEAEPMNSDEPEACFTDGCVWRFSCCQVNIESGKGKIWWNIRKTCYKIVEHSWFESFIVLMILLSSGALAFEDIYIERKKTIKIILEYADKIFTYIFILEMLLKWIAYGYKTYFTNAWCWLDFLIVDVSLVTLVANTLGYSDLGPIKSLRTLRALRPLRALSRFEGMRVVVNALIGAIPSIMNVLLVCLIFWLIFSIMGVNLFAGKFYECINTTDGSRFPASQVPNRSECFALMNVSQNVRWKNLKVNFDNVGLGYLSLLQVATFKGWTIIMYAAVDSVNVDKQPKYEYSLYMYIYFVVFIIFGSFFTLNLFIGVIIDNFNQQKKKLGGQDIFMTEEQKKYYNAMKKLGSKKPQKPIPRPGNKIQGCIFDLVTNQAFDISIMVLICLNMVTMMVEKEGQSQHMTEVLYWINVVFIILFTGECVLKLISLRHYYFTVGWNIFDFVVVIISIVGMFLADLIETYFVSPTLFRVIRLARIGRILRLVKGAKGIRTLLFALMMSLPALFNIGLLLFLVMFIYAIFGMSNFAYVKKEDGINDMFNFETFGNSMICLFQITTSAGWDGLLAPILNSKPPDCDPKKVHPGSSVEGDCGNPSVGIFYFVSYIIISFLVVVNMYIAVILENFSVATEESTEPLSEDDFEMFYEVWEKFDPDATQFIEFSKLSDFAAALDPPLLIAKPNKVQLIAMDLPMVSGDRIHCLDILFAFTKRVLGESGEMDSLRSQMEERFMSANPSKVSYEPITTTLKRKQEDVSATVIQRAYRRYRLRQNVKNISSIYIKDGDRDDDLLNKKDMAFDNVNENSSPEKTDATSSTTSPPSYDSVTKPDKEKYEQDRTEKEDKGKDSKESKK

Row | IC50 [nM] | SMILES
1 | 9.8 | COCCOCCOCCOCCOCCOCCOCCOCCOCCOCCOCCOCCC(=O)N1CCC(CCNCc2cccc(-c3cc(-c4ccccc4)ccc3Oc3ccc(S(=O)(=O)Nc4ncns4)cc3C#N)c2)CC1 [Example 31, 3-cyano-4-({3″-[({2-[1-(38-oxo-2,5,8,11,14,17,20,23,26,29,32,35-dodecaoxaoctatriacontan-38-yl)piperidin-4-yl]ethyl}amino)methyl]-1,1′:3′,1″-terphenyl-4′-yl}oxy)-N-(1,2,4-thiadiazol-5-yl)benzenesulfonamide]
2 | 2.6 | COCCOCCOCCOCCO[C@H]1CCN(Cc2cc(-c3cc(-c4cccc(C(F)(F)F)c4)ccc3Oc3ccc(S(=O)(=O)Nc4ncns4)cc3C#N)ccn2)C1 [Example 22, (S)-4-((3-(2-((3-((2,5,8,11-tetraoxatridecan-13-yl)oxy)pyrrolidin-1-yl)methyl)pyridin-4-yl)-3′-(trifluoromethyl)-[1,1′-biphenyl]-4-yl)oxy)-3-cyano-N-(1,2,4-thiadiazol-5-yl)benzenesulfonamide hemi-trifluoroacetate salt]
3 | 241 | COCCOCCOCCOCCOCCOCCOCCOCCOCCOCCOCCOCCC(=O)NCc1cc(-c2cc(-c3cccc(C(F)(F)F)c3)ccc2Oc2cc(F)c(S(=O)(=O)Nc3cscn3)cc2Cl)ccn1 [Example 28, N-[(4-{4-[2-chloro-5-fluoro-4-(1,3-thiazol-4-ylsulfamoyl)phenoxy]-3′-(trifluoromethyl)biphenyl-3-yl}pyridin-2-yl)methyl]-2,5,8,11,14,17,20,23,26,29,32,35-dodecaoxaoctatriacontan-38-amide]
4 | 16 | COCCOCCOCCOCCOCCOCCOCCOCCOCCOCCOCCOCCC(=O)N1CCN(c2cc(-c3cc(-c4ccc(C(F)(F)F)cc4)ccc3Oc3cc(F)c(S(=O)(=O)Nc4nncs4)cc3Cl)ccn2)CC1 [Example 32, 5-chloro-2-fluoro-4-{[3-{2-[4-(38-oxo-2,5,8,11,14,17,20,23,26,29,32,35-dodecaoxaoctatriacontan-38-yl)piperazin-1-yl]pyridin-4-yl}-4′-(trifluoromethyl)biphenyl-4-yl]oxy}-N-(1,3,4-thiadiazol-2-yl)benzenesulfonamide]
5 | 5 | COCCOCCOCCOCCOC1CCN(Cc2cc(-c3cc(-c4cccc(C(F)(F)F)c4)ccc3Oc3ccc(S(=O)(=O)Nc4ncns4)cc3C#N)ccn2)CC1 [Example 23, 4-((3-(2-((4-((2,5,8,11-tetraoxatridecan-13-yl)oxy)piperidin-1-yl)methyl)pyridin-4-yl)-3′-(trifluoromethyl)-[1,1′-biphenyl]-4-yl)oxy)-3-cyano-N-(1,2,4-thiadiazol-5-yl)benzenesulfonamide trifluoroacetate salt]
6 | 13.4 | COCCOCCOCCOCCOCCOCCOCCOCCOCCOCCOCCOCCC(=O)N1CCN(c2cc(-c3cc(-c4ccc(C(F)(F)F)cc4)ccc3Oc3ccc(S(=O)(=O)Nc4ncns4)cc3C#N)ccn2)CC1 [Example 24, 4-((3-(2-(4-(2,5,8,11,14,17,20,23,26,29,32,35-dodecaoxaoctatriacontan-38-oyl)piperazin-1-yl)pyridin-4-yl)-4′-(trifluoromethyl)-[1,1′-biphenyl]-4-yl)oxy)-3-cyano-N-(1,2,4-thiadiazol-5-yl)benzenesulfonamide]
7 | 47.2 | COCCOCCOCCOCCOCCOCCOCCOCCOCCOCCOCCOCCC(=O)NCc1cc(-c2cc(-c3cccc(C(F)(F)F)c3)ccc2Oc2cc(F)c(S(=O)(=O)Nc3nncs3)cc2Cl)ccn1 [Example 27, N-[(4-{4-[2-chloro-5-fluoro-4-(1,3,4-thiadiazol-2-ylsulfamoyl)phenoxy]-3′-(trifluoromethyl)biphenyl-3-yl}pyridin-2-yl)methyl]-2,5,8,11,14,17,20,23,26,29,32,35-dodecaoxaoctatriacontan-38-amide]
8 | 1.7 | COCCOCCOCCOCCOCCOCCOCCOCCOCCOCCOCCOCCC(=O)N1CCC(CCNCc2cc(-c3cc(-c4cccc(C(F)(F)F)c4)ccc3Oc3cc(F)c(S(=O)(=O)Nc4nncs4)cc3Cl)ccn2)CC1 [Example 33, 5-chloro-2-fluoro-4-{[3-{2-[({2-[1-(38-oxo-2,5,8,11,14,17,20,23,26,29,32,35-dodecaoxaoctatriacontan-38-yl)piperidin-4-yl]ethyl}amino)methyl]pyridin-4-yl}-3′-(trifluoromethyl)biphenyl-4-yl]oxy}-N-(1,3,4-thiadiazol-2-yl)benzenesulfonamide formate salt]

Further lines, the compound ahead of its results:

Row | SMILES | IC50 [nM]
9 | COCCOCCOCCOC(=O)NCc1cc(-c2cc(-c3cccc(C(F)(F)F)c3)ccc2Oc2ccc(S(=O)(=O)Nc3ncns3)cc2C#N)ccn1 [Example 8, 2-[2-(2-methoxyethoxy)ethoxy]ethyl [(4-{4-[2-cyano-4-(1,2,4-thiadiazol-5-ylsulfamoyl)phenoxy]-3′-(trifluoromethyl)biphenyl-3-yl}pyridin-2-yl)methyl]carbamate triethylammonium salt] | 3.4
10 | CC(=O)N1CCC(CCNCc2cc(-c3cc(-c4cccc(C(F)(F)F)c4)ccc3Oc3ccc(S(=O)(=O)Nc4ncns4)cc3C#N)ccn2)CC1 [Example 1, 4-({3-[2-({[2-(1-Acetylpiperidin-4-yl)ethyl]amino}methyl)pyridin-4-yl]-3′-(trifluoromethyl)biphenyl-4-yl}oxy)-3-cyano-N-1,2,4-thiadiazol-5-ylbenzenesulfonamide] | 5.8
11 | COCCOCCOCCOCCNC(=O)OCc1cc(-c2cc(-c3cccc(C(F)(F)F)c3)ccc2Oc2ccc(S(=O)(=O)Nc3ncns3)cc2C#N)ccn1 [Example 11, (4-(4-(4-(N-(1,2,4-thiadiazol-5-yl)sulfamoyl)-2-cyanophenoxy)-3′-(trifluoromethyl)-[1,1′-biphenyl]-3-yl)pyridin-2-yl)methyl (2,5,8,11-tetraoxatridecan-13-yl)carbamate] | 10.4
12 | COCCOCCOCCOCCOC1CN(Cc2cc(-c3cc(-c4cccc(C(F)(F)F)c4)ccc3Oc3ccc(S(=O)(=O)Nc4ncns4)cc3C#N)ccn2)C1 [Example 20, hemi trifluoroacetate salt] | 1
13 | COCCOCCOCCOCCNC(=O)COCc1cc(-c2cc(-c3cccc(C(F)(F)F)c3)ccc2Oc2ccc(S(=O)(=O)Nc3ncns3)cc2C#N)ccn1 [Example 14, 2-((4-(4-(4-(N-(1,2,4-thiadiazol-5-yl)sulfamoyl)-2-cyanophenoxy)-3′-(trifluoromethyl)-[1,1′-biphenyl]-3-yl)pyridin-2-yl)methoxy)-N-(2,5,8,11-tetraoxatridecan-13-yl)acetamide] | 5
14 | COCCOCCOCCOCCNC(=O)NCc1cc(-c2cc(-c3cccc(C(F)(F)F)c3)ccc2Oc2ccc(S(=O)(=O)Nc3ncns3)cc2C#N)ccn1 [Example 9, 3-cyano-4-((3-(2-(3-oxo-7,10,13,16-tetraoxa-2,4-diazaheptadecyl)pyridin-4-yl)-3′-(trifluoromethyl)-[1,1′-biphenyl]-4-yl)oxy)-N-(1,2,4-thiadiazol-5-yl)benzenesulfonamide triethylammonium salt] | 10.9
15 | N#Cc1cc(S(=O)(=O)Nc2ncns2)ccc1Oc1ccc(-c2ccccc2)cc1-c1cccc(CNCCC2CCNCC2)c1 [Example 5, 3-Cyano-4-[(3″-{[(2-piperidin-4-ylethyl)amino]methyl}-1,1′:3′,1″-terphenyl-4′-yl)oxy]-N-1,2,4-thiadiazol-5-ylbenzenesulfonamide sodium salt] | 1.5
16 | COCCOCCOCCOCCNCCOCc1cc(-c2cc(-c3cccc(C(F)(F)F)c3)ccc2Oc2ccc(S(=O)(=O)Nc3ncns3)cc2C#N)ccn1 [Example 10, 4-((3-(2-(2,8,11,14,17-pentaoxa-5-azaoctadecyl)pyridin-4-yl)-3′-(trifluoromethyl)-[1,1′-biphenyl]-4-yl)oxy)-3-cyano-N-(1,2,4-thiadiazol-5-yl)benzenesulfonamide] | 4.7
